Reference: US6034056A, “Fibronectin adhesion inhibitors” (Zeneca Limited, priority 1994, dated 2000)
Where a SMILES comes first, the peptide text is derived from it. [ ]: non-standard residue; d: D form. βAla = NCCC(=O)O

Columns and labels:
leukocyte cell = details: cited from earlier work
[1] = tested on: 120 kDa chymotryptic fragment of fibronectin; details: cited from earlier work
Jurkat cell = details: read-out: IC50, blocking Jurkat cell adhesion to CS-1 coated plates; cited from earlier work
[2] = biological tests (not specified); details: at 200 μM
Jurkat cells = details: cited from earlier work
αvβ3 = αvβ3 (Homo sapiens, UniProt P05106+P06756); details: cited from earlier work
Sequence of αvβ3 (P06756 31-889 limits assumed): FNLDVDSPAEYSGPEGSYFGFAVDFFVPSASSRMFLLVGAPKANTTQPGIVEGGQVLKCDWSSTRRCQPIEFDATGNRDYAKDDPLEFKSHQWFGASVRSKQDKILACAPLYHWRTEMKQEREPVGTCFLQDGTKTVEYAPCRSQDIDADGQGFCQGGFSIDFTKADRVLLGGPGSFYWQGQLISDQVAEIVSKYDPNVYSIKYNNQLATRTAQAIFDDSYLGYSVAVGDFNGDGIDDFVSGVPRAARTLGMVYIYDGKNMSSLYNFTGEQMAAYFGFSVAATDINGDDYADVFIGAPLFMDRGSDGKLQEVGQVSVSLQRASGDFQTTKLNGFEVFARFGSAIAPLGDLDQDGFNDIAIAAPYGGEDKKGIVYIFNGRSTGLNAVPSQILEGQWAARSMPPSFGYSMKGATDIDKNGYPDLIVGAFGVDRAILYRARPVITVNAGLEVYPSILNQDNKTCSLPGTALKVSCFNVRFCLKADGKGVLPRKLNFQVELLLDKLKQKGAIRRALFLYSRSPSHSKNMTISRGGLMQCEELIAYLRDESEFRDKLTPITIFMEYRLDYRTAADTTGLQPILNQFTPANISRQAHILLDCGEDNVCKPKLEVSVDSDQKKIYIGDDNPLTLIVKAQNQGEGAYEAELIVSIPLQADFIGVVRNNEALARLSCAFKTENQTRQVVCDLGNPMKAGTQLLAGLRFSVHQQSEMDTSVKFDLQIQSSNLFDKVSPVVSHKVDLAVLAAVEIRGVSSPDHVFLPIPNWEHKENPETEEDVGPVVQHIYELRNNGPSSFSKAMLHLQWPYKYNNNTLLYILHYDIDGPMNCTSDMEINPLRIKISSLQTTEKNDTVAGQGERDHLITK
Sequence of αvβ3 (P06756 891-1048 partner limits assumed): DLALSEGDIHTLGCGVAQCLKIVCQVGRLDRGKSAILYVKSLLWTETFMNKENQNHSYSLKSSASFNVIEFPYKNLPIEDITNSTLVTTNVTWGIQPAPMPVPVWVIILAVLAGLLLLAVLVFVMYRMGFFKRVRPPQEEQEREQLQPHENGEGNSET
Sequence of αvβ3 (P05106 27-788): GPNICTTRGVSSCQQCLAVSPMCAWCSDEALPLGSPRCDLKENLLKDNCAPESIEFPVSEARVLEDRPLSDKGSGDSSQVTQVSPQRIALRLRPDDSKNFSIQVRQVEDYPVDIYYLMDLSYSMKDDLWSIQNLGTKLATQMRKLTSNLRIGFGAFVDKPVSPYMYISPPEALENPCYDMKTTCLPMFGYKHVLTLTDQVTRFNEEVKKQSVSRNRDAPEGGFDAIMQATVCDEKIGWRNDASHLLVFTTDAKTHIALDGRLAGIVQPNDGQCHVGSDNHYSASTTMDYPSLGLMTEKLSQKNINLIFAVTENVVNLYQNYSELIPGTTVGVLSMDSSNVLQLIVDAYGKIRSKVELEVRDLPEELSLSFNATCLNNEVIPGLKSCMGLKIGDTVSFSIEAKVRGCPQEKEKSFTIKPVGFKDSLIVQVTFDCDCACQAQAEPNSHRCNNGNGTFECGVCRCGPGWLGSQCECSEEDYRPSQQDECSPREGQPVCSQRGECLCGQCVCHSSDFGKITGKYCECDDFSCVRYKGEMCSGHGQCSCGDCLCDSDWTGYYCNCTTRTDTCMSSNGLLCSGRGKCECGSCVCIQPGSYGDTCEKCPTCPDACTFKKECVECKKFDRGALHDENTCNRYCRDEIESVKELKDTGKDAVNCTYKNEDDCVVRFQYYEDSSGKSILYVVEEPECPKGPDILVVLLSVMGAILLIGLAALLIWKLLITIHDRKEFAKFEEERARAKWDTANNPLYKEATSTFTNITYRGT

αIIbβIIIa = αIIbβIIIa (Homo sapiens, UniProt P05106+P08514); details: cited from earlier work
Sequence of αIIbβIIIa (P08514 32-887 limits assumed): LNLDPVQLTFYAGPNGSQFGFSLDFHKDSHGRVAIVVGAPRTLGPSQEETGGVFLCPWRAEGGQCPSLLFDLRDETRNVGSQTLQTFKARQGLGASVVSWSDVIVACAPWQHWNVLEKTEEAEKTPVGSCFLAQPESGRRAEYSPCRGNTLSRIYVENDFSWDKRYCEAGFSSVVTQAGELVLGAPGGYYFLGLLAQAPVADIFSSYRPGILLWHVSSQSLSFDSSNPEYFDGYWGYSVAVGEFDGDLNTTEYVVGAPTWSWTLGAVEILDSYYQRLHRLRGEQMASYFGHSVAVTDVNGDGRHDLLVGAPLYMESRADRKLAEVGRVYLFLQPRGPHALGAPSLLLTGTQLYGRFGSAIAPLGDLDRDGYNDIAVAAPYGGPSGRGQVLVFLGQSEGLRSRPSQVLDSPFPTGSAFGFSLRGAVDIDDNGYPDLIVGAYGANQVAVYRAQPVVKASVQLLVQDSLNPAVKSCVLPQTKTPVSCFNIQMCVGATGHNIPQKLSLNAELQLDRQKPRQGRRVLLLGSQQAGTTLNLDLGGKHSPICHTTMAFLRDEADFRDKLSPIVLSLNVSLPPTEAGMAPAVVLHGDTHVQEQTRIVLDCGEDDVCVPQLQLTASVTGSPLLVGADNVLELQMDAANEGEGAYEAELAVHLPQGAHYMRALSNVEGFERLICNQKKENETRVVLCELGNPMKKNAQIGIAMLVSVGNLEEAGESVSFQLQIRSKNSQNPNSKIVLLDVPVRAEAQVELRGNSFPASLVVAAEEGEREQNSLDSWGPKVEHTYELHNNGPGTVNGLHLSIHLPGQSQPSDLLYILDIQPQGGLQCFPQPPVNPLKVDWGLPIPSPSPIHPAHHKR
Sequence of αIIbβIIIa (P08514 891-1039 partner limits assumed): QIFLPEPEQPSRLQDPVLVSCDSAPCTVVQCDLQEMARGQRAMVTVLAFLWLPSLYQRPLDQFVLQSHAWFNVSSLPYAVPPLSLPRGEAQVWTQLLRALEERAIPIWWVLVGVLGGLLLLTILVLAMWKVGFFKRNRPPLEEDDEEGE
Sequence of αIIbβIIIa (P05106 27-788): as the sequence (P05106 27-788) above

For Arg-Cys-Asp-thioproline-Cys, the “inhibition of leukocyte cell adhesion to fibronectin” value (leukocyte cell) is given as “inhibitor of leukocyte cell adhesion to fibronectin” and the “inhibition of binding to 120 kDa fibronectin fragment” value [1] is given as “inhibited the binding”.

In the case of “Cys-Leu-His-Gly-Pro-Glu-Ile-Ieu-Asp-Val-Pro-Ser-Thr”, the IC50 (Jurkat cell) is listed as 30 µM.

For `CC[C@H](C)[C@@H]1NC(=O)CCNC(=O)[C@H](C(C)C)NC(=O)[C@H](CC(=O)O)NC(=O)[C@H](CC(C)C)NC1=O` (cyclo(DV[βAla]IL)), the “activity in biological tests” value [2] was “inactive”.

In the case of “1-adamantaneacetyl-Cys-Gly-Arg-Gly-Asp-Ser-Pro-Cys”, the IC50 (Jurkat cell) is given as 30 µM, the “inhibition of Jurkat cell binding to fibronectin coated plates” value (Jurkat cells) is given as “inhibited the binding” and the “inhibition of function in αvβ3-dependent assay” value (αvβ3) is given as “inhibited function”. The “inhibition of function in αIIbβIIIa-dependent assay” value (αIIbβIIIa) was “inhibited function”.
